Format in all cases: cell-based
For one assay, the target named is T1, human CCR2 (Homo sapiens, UniProt P41597).
T1 construct: host or cells: Chem-1 cell line
T1 sequence (P41597 1-360 isoform P41597-2): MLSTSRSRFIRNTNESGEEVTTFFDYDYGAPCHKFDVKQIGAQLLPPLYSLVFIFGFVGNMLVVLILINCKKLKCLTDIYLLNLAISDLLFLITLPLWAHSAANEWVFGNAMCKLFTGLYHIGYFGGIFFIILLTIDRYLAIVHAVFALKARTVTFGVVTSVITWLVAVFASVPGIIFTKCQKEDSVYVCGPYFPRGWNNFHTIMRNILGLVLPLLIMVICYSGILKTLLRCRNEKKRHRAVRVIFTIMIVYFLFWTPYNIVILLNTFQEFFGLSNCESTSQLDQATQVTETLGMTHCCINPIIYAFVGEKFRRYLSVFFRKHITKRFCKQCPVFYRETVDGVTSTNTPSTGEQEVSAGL
Description: Functional Ca2+ release test (B-1). Particulars: Chem-1 cell line transfected with human CCR2; 50% inhibition of the MCP-1 effect, MCP-1 at EC50 (about 5 nM); in some cases means of several determinations. The gist of the method: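 Chem-1 cells expressing human CCR2, loaded with Fluo-4 for 60 min at 37° C, were preincubated 10 min with compound (10-point, 1:3.16 dilutions), then stimulated with MCP-1 at its predetermined EC50 (about 5 nM). Ca2+ release was monitored for 120 s. IC50 came from a 4-parameter Hill fit.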

Assay [1] concerns the target T2, murine CCR2 (Mus musculus, UniProt P51683).
T2 construct: host or cells: U2OS β-arrestin cell line
The experiment in a line: Functional β-arrestin recruiting test with murine MCP-1 (B-2b). As to conditions: U2OS β-arrestin cell line transfected with murine CCR2; agonist murine MCP-1; in some cases means of several determinations. The gist of the method: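 In a PathHunter β-galactosidase complementation assay, U2OS cells expressing murine CCR2 were preincubated 10 min with compound (10-point, 1:3.16 dilutions), then challenged with murine MCP-1 at its predetermined EC50 for 90 min at 37 °C. Luminescence was read after 60 min, and IC50 was fitted with a 4-parameter Hill function.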

Assay [2] deals with T2, murine CCR2. Description: Functional β-arrestin recruiting test with human MCP-1 (B-2a). As to conditions: U2OS β-arrestin cell line transfected with murine CCR2; agonist human MCP-1 at EC50 (about 3 nM); in some cases means of several determinations. The method in brief: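 Antagonist mode in U2OS cells expressing murine CCR2, read by PathHunter β-galactosidase complementation luminescence. Cells pre-incubated 10 min with 10-point compound dilutions (1:3.16 steps), then stimulated with human MCP-1 at its EC50 (usually about 3 nM) for 90 min at 37° C.; IC50 from 4-parameter logistic fit.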

T2 sequence (P51683 whole entry): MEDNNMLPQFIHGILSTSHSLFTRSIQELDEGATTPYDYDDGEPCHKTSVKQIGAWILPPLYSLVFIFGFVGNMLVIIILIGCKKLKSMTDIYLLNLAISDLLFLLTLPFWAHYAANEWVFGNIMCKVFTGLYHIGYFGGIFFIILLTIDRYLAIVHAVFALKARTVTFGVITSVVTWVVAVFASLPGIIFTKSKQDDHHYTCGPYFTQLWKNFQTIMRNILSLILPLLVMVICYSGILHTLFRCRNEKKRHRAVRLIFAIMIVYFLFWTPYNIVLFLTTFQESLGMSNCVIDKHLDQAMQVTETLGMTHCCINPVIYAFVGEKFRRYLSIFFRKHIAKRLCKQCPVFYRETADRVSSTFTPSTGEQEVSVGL

Broadly, the IC50 is the point on the concentration scale where inhibition reaches its midpoint. Read a low IC50 as greater potency in that assay. As to `Nc1cnn(-c2nc(C(F)(F)F)c(Oc3ccc(Cl)c(Cl)c3)c(=O)[nH]2)c1` [Example 47, 2-(4-Amino-1H-pyrazol-1-yl)-5-(3,4-dichlorophenoxy)-6-(trifluoromethyl)pyrimidin-4(3H)-one], the half-maximal inhibitory concentration (IC50) worked out at 1 nM on human CCR2, 95 nM at murine CCR2 [1] and 3.6 nM at murine CCR2 [2].

As for `O=c1[nH]c(-c2cc[nH]n2)nc(C(F)(F)F)c1Oc1ccc(Cl)c(Cl)c1` [Example 49, 5-(3,4-Dichlorophenoxy)-2-(1H-pyrazol-3-yl)-6-(trifluoromethyl)pyrimidin-4(3H)-one], the IC50 at human CCR2 was 0.6 nM; on murine CCR2 [1], 12 nM; on murine CCR2 [2] it was 2.5 nM.

As for `O=c1[nH]c(-n2cccn2)nc(C(F)(F)F)c1Oc1ccc(Cl)c(Cl)c1` [Example 51, 5-(3,4-dichlorophenoxy)-2-(1H-pyrazol-1-yl)-6-(trifluoromethyl)pyrimidin-4(3H)-one], the IC50 against human CCR2 amounted to 0.5 nM; on murine CCR2 [1], 112 nM; on murine CCR2 [2] it was 20 nM.

For the compound `Cn1cnc(-c2nc(C(F)(F)F)c(Cc3ccc(Cl)c(Cl)c3)c(=O)[nH]2)c1` [Example 52, 5-(3,4-dichlorobenzyl)-2-(1-methyl-1H-imidazol-4-yl)-6-(trifluoromethyl)pyrimidin-4(3H)-one], the IC50 against human CCR2 was 1.3 nM; on murine CCR2 [1], 439 nM; on murine CCR2 [2] it was 85 nM.

Take `O=c1[nH]c(-n2cccn2)nc(C(F)(F)F)c1Cc1ccc(Cl)c(Cl)c1` [Example 53, 5-(3,4-dichlorobenzyl)-2-(1H-pyrazol-1-yl)-6-(trifluoromethyl)pyrimidin-4(3H)-one]: the IC50 was found to be 1.8 nM at human CCR2, 440 nM on murine CCR2 [1] and 67 nM on murine CCR2 [2].

As to `Cc1cc(-c2nc(C(F)(F)F)c(Oc3ccc(Cl)c(Cl)c3)c(=O)[nH]2)nn1C` [Example 54, 5-(3,4-dichlorophenoxy)-2-(1,5-dimethyl-1H-pyrazol-3-yl)-6-(trifluoromethyl)pyrimidin-4(3H)-one], the half-maximal inhibitory concentration (IC50) on human CCR2 was 2.8 nM; at murine CCR2 [1], 458 nM; at murine CCR2 [2], 51 nM.

As to `Cn1cnc(-c2nc(C(F)(F)F)c(Oc3ccc(Cl)c(C(F)(F)F)c3)c(=O)[nH]2)c1` [Example 59, 5-[4-chloro-3-(trifluoromethyl)phenoxy]-2-(1-methyl-1H-imidazol-4-yl)-6-(trifluoromethyl)pyrimidin-4(3H)-one], the IC50 on human CCR2 worked out at 0.6 nM; at murine CCR2 [1] it was 106 nM; on murine CCR2 [2] it was 12 nM.

For the compound `O=c1[nH]c(-c2cc[nH]n2)nc(C(F)(F)F)c1Oc1ccc(Cl)c(C(F)(F)F)c1` [Example 65, 5-[4-chloro-3-(trifluoromethyl)phenoxy]-2-(1H-pyrazol-3-yl)-6-(trifluoromethyl)pyrimidin-4(3H)-one], the half-maximal inhibitory concentration (IC50) stood at 0.3 nM at human CCR2, 4.8 nM on murine CCR2 [1] and 1.8 nM on murine CCR2 [2].

Regarding `O=c1[nH]c(-c2cn[nH]c2)nc(C(F)(F)F)c1Oc1ccc(Cl)c(C(F)(F)F)c1` [Example 70, 5-[4-chloro-3-(trifluoromethyl)phenoxy]-2-(1H-pyrazol-4-yl)-6-(trifluoromethyl)pyrimidin-4(3H)-one], the IC50 against human CCR2 stood at 0.8 nM; at murine CCR2 [1], 154 nM; at murine CCR2 [2], 56 nM.

In the case of `O=c1[nH]c(-n2cccn2)nc(C(F)(F)F)c1Cc1ccc(Cl)c(C(F)(F)F)c1` [Example 71, 5-[4-chloro-3-(trifluoromethyl)benzyl]-2-(1H-pyrazol-1-yl)-6-(trifluoromethyl)pyrimidin-4(3H)-one], the half-inhibitory concentration (IC50) came to 3 nM on human CCR2, 1080 nM at murine CCR2 [1] and 57 nM at murine CCR2 [2].

In the case of `O=c1[nH]c(-n2cccn2)nc(C(F)(F)F)c1Oc1ccc(Cl)c(C(F)(F)F)c1` [Example 73, 5-[4-chloro-3-(trifluoromethyl)phenoxy]-2-(1H-pyrazol-1-yl)-6-(trifluoromethyl)pyrimidin-4(3H)-one], the 50% inhibitory concentration (IC50) on human CCR2 turned out to be 0.4 nM; at murine CCR2 [1], 37 nM; on murine CCR2 [2], 12 nM.

Consider `O=c1[nH]c(-c2n[nH]cc2Cl)nc(C(F)(F)F)c1Oc1ccc(Cl)c(Cl)c1` [Example 74, 2-(4-chloro-1H-pyrazol-3-yl)-5-(3,4-dichlorophenoxy)-6-(trifluoromethyl)pyrimidin-4(3H)-one], for which the half-maximal inhibitory concentration (IC50) against human CCR2 is 1.1 nM; on murine CCR2 [1] it was 59 nM; on murine CCR2 [2], 2.9 nM.

As for `O=c1[nH]c(-c2n[nH]cc2Cl)nc(C(F)(F)F)c1Cc1ccc(Cl)c(Cl)c1` [Example 75, 2-(4-chloro-1H-pyrazol-3-yl)-5-(3,4-dichlorobenzyl)-6-(trifluoromethyl)pyrimidin-4(3H)-one], the IC50 was determined as 1.3 nM against human CCR2, 102 nM at murine CCR2 [1] and 29 nM at murine CCR2 [2].

In the case of `O=c1[nH]c(-c2n[nH]cc2Cl)nc(C(F)(F)F)c1Cc1ccc(Cl)c(C(F)(F)F)c1` [Example 76, 2-(4-chloro-1H-pyrazol-3-yl)-5-[4-chloro-3-(trifluoromethyl)benzyl]-6-(trifluoromethyl)pyrimidin-4(3H)-one], the figures for the concentration for half-maximal inhibition (IC50) on human CCR2, at murine CCR2 [1] and on murine CCR2 [2] were 1.5 nM, 111 nM and 26 nM, respectively.

As to `O=c1[nH]c(-c2n[nH]cc2Cl)nc(C(F)(F)F)c1Oc1ccc(Cl)c(C(F)(F)F)c1` [Example 77, 2-(4-chloro-1H-pyrazol-3-yl)-5-[4-chloro-3-(trifluoromethyl)phenoxy]-6-(trifluoromethyl)pyrimidin-4(3H)-one], the IC50 was found to be 2 nM against human CCR2, 18 nM on murine CCR2 [1] and 6.3 nM on murine CCR2 [2].

Turning to `O=c1[nH]c(-c2ncon2)nc(C(F)(F)F)c1Oc1ccc(Cl)c(C(F)(F)F)c1` [Example 78, 5-[4-Chloro-3-(trifluoromethyl)phenoxy]-2-(1,2,4-oxadiazol-3-yl)-6-(trifluoromethyl)pyrimidin-4(3H)-one], the IC50 came to 3.7 nM against human CCR2, 50 nM at murine CCR2 [1] and 16 nM on murine CCR2 [2].

On to `Cc1nc(-c2nc(C(F)(F)F)c(Oc3ccc(Cl)c(Cl)c3)c(=O)[nH]2)no1` [Example 83], for which the results for the concentration for half-maximal inhibition (IC50) against human CCR2, on murine CCR2 [1] and on murine CCR2 [2] were 20 nM, 308 nM and 79 nM, respectively.

On to `O=c1[nH]c(Cc2ccno2)nc(C(F)(F)F)c1Oc1ccc(Cl)c(Cl)c1` [Example 95, 5-(3,4-dichlorophenoxy)-2-(1,2-oxazol-5-ylmethyl)-6-(trifluoromethyl)pyrimidin-4(3H)-one], for which the half-maximal inhibitory concentration (IC50) at human CCR2 was 27 nM; on murine CCR2 [1] it was 449 nM; at murine CCR2 [2], 77 nM.

On to `Nc1cnn(-c2nc(C(F)(F)F)c(Cc3ccc(Cl)c(C(F)(F)F)c3)c(=O)[nH]2)c1` [Example 107, 2-(4-Amino-1H-pyrazol-1-yl)-5-[4-chloro-3-(trifluoromethyl)benzyl]-6-(trifluoromethyl)pyrimidin-4(3H)-one], for which the IC50 at human CCR2 worked out at 2.4 nM; on murine CCR2 [1] it was 53 nM; at murine CCR2 [2] it was 28 nM.

In the case of `Nc1cnn(-c2nc(C(F)(F)F)c(Oc3ccc(Cl)c(C(F)(F)F)c3)c(=O)[nH]2)c1` [Example 108, 2-(4-amino-1H-pyrazol-1-yl)-5-[4-chloro-3-(trifluoromethyl)phenoxy]-6-(trifluoromethyl)pyrimidin-4(3H)-one], the IC50 came to 0.8 nM against human CCR2, 27 nM on murine CCR2 [1] and 2.7 nM on murine CCR2 [2].

On to `Nc1ccc(-c2nc(C(F)(F)F)c(Oc3ccc(Cl)c(C(F)(F)F)c3)c(=O)[nH]2)nc1` [Example 113, 2-(5-Aminopyridin-2-yl)-5-[4-chloro-3-(trifluoromethyl)phenoxy]-6-(trifluoromethyl)pyrimidin-4(3H)-one], for which the figures for the IC50 at human CCR2, at murine CCR2 [1] and at murine CCR2 [2] were 0.4 nM, 16 nM and 8.3 nM, respectively.

Turning to `O=c1[nH]c(-c2ncon2)nc(C(F)(F)F)c1Oc1ccc(Cl)c(Cl)c1` [compound 79, 5-(3,4-Dichlorophenoxy)-2-(1,2,4-oxadiazol-3-yl)-6-(trifluoromethyl)pyrimidin-4(3H)-one], the concentration for half-maximal inhibition (IC50) was 4.2 nM against human CCR2, 195 nM at murine CCR2 [1] and 53 nM on murine CCR2 [2].

Source of the values: patent publication US20160237059A1, “HETEROCYCLIC SUBSTITUTED TRIFLUOROMETHYL PYRIMIDINONES AND THEIR USE” (BAYER PHARMA AKTIENGESELLSCHAFT, priority 2013, published 2016).
